The values that follow come from patent US10494357B2, “Tocotrienol derivatives, pharmaceutical composition and method of use in 5-lipoxygenase related diseases” (UNIVERSITÉ D'ANGERS, priority 2015, dated 2019).

The IC50 is the concentration at which inhibition is half-maximal.

Each structure is given as a SMILES string. Read-outs that look alike come from different tables or passages of the source.

The test system of data set [1] is 5-LO product formation in neutrophils. Put plainly: 5-LO product formation in neutrophils. Particulars: for IC50: Homo sapiens, Neutrophil; for 5-LO product formation in neutrophils (A23187) residual activities [% vehicle control]: A23187 alone; for 5-LO product formation in neutrophils (AA + A23187) residual activities [% vehicle control]: A23187 plus 20 μM AA. Format: cell-based, human. Here is the method:
Freshly isolated neutrophils (1×10^7/ml) were pre-incubated with the test compounds for 15 min at 37° C. Then, 5-LO product formation was started by addition of 2.5 μM Ca^2+-ionophore A23187 alone or A23187 plus 20 μM arachidonic acid (AA). The reaction was stopped after 10 min at 37° C. with 1 ml of methanol. Major 5-LO metabolites (LTB4 and its all-trans isomers and 5-H(P)ETE) were extracted and analyzed by HPLC as described (Werz: Blood 2002, 99, 1044-1052). Cysteinyl-LTs C4, D4 and E4 and oxidation products of LTB4 were not determined.

Another data set concerns HepaRG® cells. The data set can be described thus: Hepatotoxicity assay. Format: cell-based. The following applies: 48 h. As to the method: HepaRG® cells were seeded at a density of 2.6×10^4 cells/cm^2 in Williams' E medium supplemented with 2 mM glutamax, 100 U/mL penicillin, 100 μg/mL streptomycin, 10% Hyclone fetal calf serum, 5 μg/mL insulin, and […] hydrocortisone hemisuccinate. At confluence, after 2 weeks, HepaRG® cells were shifted to the same medium supplemented with 1.7% dimethyl sulfoxide for 2 additional weeks in order to obtain confluent differentiated cultures containing equal proportions of hepatocyte-like and progenitors/primitive biliary-like cell. These differentiated hepatic cell cultures were used for analytical assays.
Then, the cells were exposed to a tocotrienol derivative in Williams' E medium supplemented with 2% Hyclone fetal calf serum containing 0.2% dimethyl sulfoxide during 48 h.

The target of another data set is T1, human recombinant 5-LO (Homo sapiens, UniProt P09917).
T1 construct: made in house; inferred to be the same preparation
T1 sequence (P09917 1-674): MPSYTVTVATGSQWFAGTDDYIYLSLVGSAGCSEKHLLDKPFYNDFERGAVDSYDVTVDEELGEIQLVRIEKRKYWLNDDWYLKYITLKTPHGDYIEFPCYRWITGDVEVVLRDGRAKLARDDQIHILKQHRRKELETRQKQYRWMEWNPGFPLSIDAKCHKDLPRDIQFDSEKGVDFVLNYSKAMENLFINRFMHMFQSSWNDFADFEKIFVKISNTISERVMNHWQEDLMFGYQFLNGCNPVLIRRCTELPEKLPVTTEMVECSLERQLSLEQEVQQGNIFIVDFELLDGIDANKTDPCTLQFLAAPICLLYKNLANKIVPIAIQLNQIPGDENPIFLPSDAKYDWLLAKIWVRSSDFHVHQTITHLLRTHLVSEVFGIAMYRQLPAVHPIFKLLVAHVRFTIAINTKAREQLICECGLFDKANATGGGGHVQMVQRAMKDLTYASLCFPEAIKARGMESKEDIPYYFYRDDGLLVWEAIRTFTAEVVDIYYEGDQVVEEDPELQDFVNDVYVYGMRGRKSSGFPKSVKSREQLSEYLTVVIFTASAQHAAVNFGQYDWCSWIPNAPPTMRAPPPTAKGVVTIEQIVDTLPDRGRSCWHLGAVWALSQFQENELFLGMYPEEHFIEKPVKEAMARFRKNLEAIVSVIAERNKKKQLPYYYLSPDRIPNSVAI
The data set can be described thus: Human recombinant 5-LO activity. In kind it is biochemical. As to the method: Methods for measuring the 5-LO activity are well-known from the skilled artisan. An example of such a method is disclosed in the Examples.
Human recombinant 5-LO was pre-incubated with the test compounds for 10 min at 4° C. and pre-warmed for 30 s at 37° C. 5-LO product formation was initiated by addition of 2 mM CaCl2 and 20 μM arachidonic acid. After 10 min at 37° C., the reaction was terminated by addition of 1 ml ice-cold methanol.

The next data set concerns LTC4 formation. Put plainly: Zymosan-induced peritonitis in mice, LTC4 level in peritoneal exudate. Format: in vivo. The following applies: 10 mg/kg i.p. 30 min before zymosan, measured 30 min after zymosan injection. Here is the method: Zymosan was used to trigger peritonitis in mice pre-treated with a-amplexichromanol or Zileuton, each at a dose of 10 mg/kg. The resulting LTC4 levels in the peritoneal exudate were measured 30 min after zymosan injection.
α-amplexichromanol (10 mg/kg) or vehicle (0.5 ml of 0.9% saline solution containing 2% DMSO) were given i.p. 30 min before zymosan i.p. injection (0.5 ml of a 2 mg/ml suspension in 0.9% w/v saline). Mice were killed by inhalation of CO2 at the indicated time points followed by a peritoneal lavage with 3 ml of cold PBS pH 7.4. Exudates were collected. After centrifugation of the exudates (18,000× g, 5 min, 4° C.), the amounts of cysteinyl-LTs were analyzed in the supernatant by enzyme immunoassay (Enzo Life Sciences GmbH, Lörrach, Germany) according to manufacturer's instructions.

For the next data set, the system named is TNF-α. The data set can be described thus: TNF-α release from LPS-stimulated monocytes (ELISA). In kind it is cell-based. The following applies: LPS 10 ng/ml. Here is the method: (§1) First, different concentrations of δ-amplexichromanol (0.1; 1 and 10 μM) were added to the stimulated monocytes.
(§2) Secondly, monocytes were stimulated with lipopolysaccharide (LPS, 10 ng/ml for 4-18 h) for inducing the formation of pro-inflammatory cytokines.
(§3) Finally, the resulting levels of proinflammatory cytokines were measured by ELISA. Dexamethasone (1 μM) was used as control.

For a further data set, the system named is IL-1β. The data set can be described thus: IL-1β release from LPS-stimulated monocytes (ELISA). Particulars: LPS 10 ng/ml. Format: cell-based. Here is the method: as §1, §2, §3
In general terms: In an ELISA, binding on a coated surface is turned into a signal by an enzyme label.

The subject of a further data set is IL-8. Put plainly: IL-8 release from LPS-stimulated monocytes (ELISA). Format: cell-based. The following applies: LPS 10 ng/ml. As to the method: as §1, §2, §3
Where [2] appears, read: human recombinant 5-LO, read-out: IC50 (nM) 5-LO activity.

Turning to `CC(=O)N(O)C/C=C/c1cccc(Oc2ccccc2)c1` [BWA4C, N-RE)-3-(3-phenoxyphenye-prop-2-enyllacetohydroxamic acid, reference compound], the 50% inhibitory concentration (IC50) in data set [1] stood at 41 ± 1 nM.
Consider `C/C(=C\CC/C(C)=C/CCC1(C)CCc2c(C)c(O)c(C)c(C)c2O1)CCC=C(CO)CO` (centres unmarked) [Compound 1, 2-((4E,8E)-11-(6-hydroxy-2,5,7,8-tetramethylchroman-2-yl)-4,8-dimethylundeca-4,8-dien-1-ylidene)propane-1,3-diol], for which the results for the IC50 (in data set [1]; at human recombinant 5-LO (setting [2])) were 19 ± 4 nM and 106 ± 29 nM, respectively. The results for the Number of cells in the data set with HepaRG® cells (0.1 μM), with HepaRG® cells (1 μM) and in the data set on HepaRG® cells (10 μM) were 4389, 4705 and 4702, respectively. Further, the “LTC4 level in the peritoneal exudate” value with LTC4 formation was “the same than the LTC4 level obtained by Zileuton”.
`C/C(=C\CC/C(C)=C/CCC1(C)CCc2c(C)c(O)cc(C)c2O1)CCC=C(CO)CO` (centres unmarked) [Compound 9, 2-((4E,8E)-11-(6-hydroxy-2,5,8-trimethylchroman-2-yl)-4,8-dimethylundeca-4,8-dien-1-ylidene)propane-1,3-diol]: the IC50 is 114 ± 35 nM in data set [1] and 91 ± 15 nM at human recombinant 5-LO. For the same molecule, the Number of cells in the data set with HepaRG® cells (0.1 μM) is on record as 4429; with HepaRG® cells (1 μM), 4436; in the data set with HepaRG® cells (10 μM), 4785.
For `C/C(=C/CC/C(C)=C/CC/C(C)=C/CCC1(C)CCc2cc(O)cc(C)c2O1)CO` (centres unmarked) [Compound 23, 2-((3E,7E,11Z)-13-hydroxy-4,8,12-trimethyltrideca-3,7,11-trien-1-yl)-2,8-dimethylchroman-6-ol], the figures for the IC50 (in data set [1]; on human recombinant 5-LO (setting [2])) were 220 ± 40 nM and 137 ± 29 nM, respectively.
With `C/C(=C\CC/C(C)=C/CCC1(C)CCc2cc(O)cc(C)c2O1)CCC=C(CO)CO` (centres unmarked) [Compound 26, 2-((4E,8E)-11-(6-hydroxy-2,8-dimethylchroman-2-yl)-4,8-dimethylundeca-4,8-dien-1-ylidene)propane-1,3-diol], the results for the “5-LO product formation in neutrophils (A23187) residual activities [% vehicle control]” value in data set [1] (0.1 μM), in data set [1] (1 μM) and in data set [1] (10 μM) were 17.4 ± 8.8 % vehicle control, 10.0 ± 2.8 % vehicle control and 0.0 ± 0.0 % vehicle control, respectively. Further, the “5-LO product formation in neutrophils (AA + A23187) residual activities [% vehicle control]” value is on record as “n.i.^a” in data set [1] (0.1 μM), 15.4 ± 4.4 % vehicle control in data set [1] (1 μM) and 0.6 ± 0.6 % vehicle control in data set [1] (10 μM). Also, the figures for the IC50 (in data set [1]; at human recombinant 5-LO (setting [2])) were 419 ± 33 nM and 148 ± 35 nM, respectively. Also, the “TNF-α release (%)” value in the data set with TNF-α (1 μM) was “n.i.^a”. For the same molecule, in the data set on IL-1β (1 μM), the “IL-1β release (%)” value is given as 86 ± 11%. In addition, in the data set on IL-8 (1 μM), the “IL-8 release (%)” value is “n.i.^a”.
With `C/C(=C/CC/C(C)=C/CC/C(C)=C/CCC1(C)CCc2cc(O)c(C)c(C)c2O1)CO` (centres unmarked) [Compound 33, 2-((3E,7E,11Z)-13-hydroxy-4,8,12-trimethyltrideca-3,7,11-trien-1-yl)-2,7,8-trimethylchroman-6-ol], the IC50 stood at 140 ± 21 nM in data set [1] and 120 ± 29 nM at human recombinant 5-LO (setting [2]). Moreover, the Number of cells came to 4363 in the data set with HepaRG® cells (0.1 μM), 4412 in the data set with HepaRG® cells (1 μM) and 4610 with HepaRG® cells (10 μM).
Turning to `C/C(=C\CC/C(C)=C/CCC1(C)CCc2cc(O)c(C)c(C)c2O1)CCC=C(CO)CO` (centres unmarked) [Compound 34, 2-((4E,8E)-11-(6-hydroxy-2,7,8-trimethylchroman-2-yl)-4,8-dimethylundeca-4,8-dien-1-ylidene)propane-1,3-diol], the half-inhibitory concentration (IC50) in data set [1] was found to be 67 ± 54 nM; at human recombinant 5-LO (setting [2]), 110 nM. For the same molecule, the Number of cells in the data set with HepaRG® cells (0.1 μM) came out at 4212; in the data set with HepaRG® cells (1 μM), 4562; with HepaRG® cells (10 μM) it was 4677.
As for `CC(c1cc2ccccc2s1)N(O)C(N)=O` (centres unmarked) [Zileuton, reference compound], the Number of cells with HepaRG® cells (0.1 μM) is recorded as 4313; in the data set on HepaRG® cells (1 μM), 4244; in the data set with HepaRG® cells (10 μM), 4554.
As for `C[C@@H]1C[C@H]2[C@@H]3CCC4=CC(=O)C=C[C@]4(C)[C@@]3(F)[C@@H](O)C[C@]2(C)[C@@]1(O)C(=O)CO` [dexamethasone], the “TNF-α release (%)” value is 42.2 ± 0.8% in the data set on TNF-α (1 μM) and 13.3 ± 2.6% in the data set with TNF-α (10 μM). The “IL-1β release (%)” value in the data set with IL-1β (1 μM) is given as 68.7 ± 2.4%; in the data set on IL-1β (10 μM), 49.9 ± 4.8%. The “IL-8 release (%)” value with IL-8 (1 μM) was found to be 83.5 ± 3.2%; in the data set with IL-8 (10 μM), 30.6 ± 1.5%.
